Measured values taken from US20220296623A1, “REDUCED NICOTINAMIDERIBOSIDES FOR TREATING OR PREVENTING KIDNEY DISEASE” (SOCIETE DES PRODUITS NESTLE S.A., priority 2019, published 2022).

How the values were obtained:
[1] = test system: 3T3 fibroblasts; experiment: NAD+ levels in 3T3 fibroblasts after NRH treatment; format: cell-based
Protocol: The ability of NRH to potently increase NAD+ was tested as well in other cell type models.

[2] = test system: NRH-induced NAD+ Synthesis; experiment: Intracellular NAD-related metabolites after NRH or NR treatment; format: cell-based
From the text: Levels of NRH and other NAD-related metabolites in biological samples were obtained by using a cold liquid-liquid extraction using a mixture of methanol:water:chloroform in 5:3:5 (v/v), from which the polar phase was recovered for hydrophilic interaction ultra-high performance liquid chromatography mass spectrometry (UHPLC-MS) analysis. The UHPLC consisted of a binary pump, a cooled autosampler, and a column oven (DIONEX Ultimate 3000 UHPLC+ Focused, Thermo Scientific), connected to a triple quadrupole spectrometer (TSQ Vantage, Thermo Scientific) equipped with a heated electrospray ionisation (H-ESI) source. Of each sample, 2 μL were injected into the analytical column (2.1 mm×150 mm, 5 μm pore size, 200 Å HILICON iHILIC®-Fusion(P)), guarded by a pre-column (2.1 mm×20 mm, 200 Å HILICON iHILIC®-Fusion(P) Guard Kit) operating at 35° C. The mobile phase (10 mM ammonium acetate at pH 9, A, and acetonitrile, B) was pumped at 0.25 mL/min flow rate over a linear gradient of decreasing organic solvent (0.5-16 min, 90-25% B), followed by re-equilibration for a total run time of 30 min. The MS operated in positive mode at 3500 V with multiple reaction monitoring (MRM). The software Xcalibur v4.1.31.9 (Thermo Scientific) was used for instrument control, data acquisition and processing. Retention time and mass detection was confirmed by authentic standards. […]

[3] = Circulating NAM, NRH and NR after intraperitoneal injection; format: in vivo, mice; details: mouse, in vivo, ip
From the text: (§1) Levels of NRH and other NAD-related metabolites in biological samples were obtained by using a cold liquid-liquid extraction using a mixture of methanol:water:chloroform in 5:3:5 (v/v), from which the polar phase was recovered for hydrophilic interaction ultra-high performance liquid chromatography mass spectrometry (UHPLC-MS) analysis. The UHPLC consisted of a binary pump, a cooled autosampler, and a column oven (DIONEX Ultimate 3000 UHPLC+ Focused, Thermo Scientific), connected to a triple quadrupole spectrometer (TSQ Vantage, Thermo Scientific) equipped with a heated electrospray ionisation (H-ESI) source. Of each sample, 2 μL were injected into the analytical column (2.1 mm×150 mm, 5 μm pore size, 200 Å HILICON iHILIC®-Fusion(P)), guarded by a pre-column (2.1 mm×20 mm, 200 Å HILICON iHILIC®-Fusion(P) Guard Kit) operating at 35° C. The mobile phase (10 mM ammonium acetate at pH 9, A, and acetonitrile, B) was pumped at 0.25 mL/min flow rate over a linear gradient of decreasing organic solvent (0.5-16 min, 90-25% B), followed by re-equilibration for a total run time of 30 min. The MS operated in positive mode at 3500 V with multiple reaction monitoring (MRM). The software Xcalibur v4.1.31.9 (Thermo Scientific) was used for instrument control, data acquisition and processing. Retention time and mass detection was confirmed by authentic standards.
(§2) The above results prompted us to test whether NRH could act as an effective NAD+ precursor in vivo. For this, we first intraperitoneally (IP) injected mice with either NR or NRH (500 mg/kg).

[4] = parameters: species or system mice; details: mouse, in vivo, po
From the text: as §1
Oral administration of NRH led to very similar results to those observed after IP administration. […] In contrast, NR levels were undetectable at 1 h after NR administration. As expected, NR treatment led to large increases in circulating NAM, which where ˜4-fold higher than those observed after NRH treatment.

[5] = test system: AML12 hepatocytes; experiment: Intracellular NAD+ levels in AML12 hepatocytes after NRH or NR treatment (dose-response, time course); format: cell-based
From the text: as §1
Even at such relatively low dose, NRH achieved similar increases in intracellular NAD+ levels to those reached with NR at 50-fold higher concentrations.
NRH actions were also extremely fast (FIG. 3), as significant increases in NAD+ levels were observed within 5 minutes after NRH treatment.

[6] = test system: NAD+ levels in liver, muscle and kidney; experiment: Tissue NAD+ levels after intraperitoneal injection of NR or NRH; format: in vivo, mice; details: IP 500 mg/kg, after 1 h
Protocol: as §2

[7] = test system: cisplatin-induced acute kidney injury; format: in vivo, C57BI/6NTac mice
Protocol: Simultaneously, mice were intraperitoneally injected with PBS (as vehicle) or NRH (250 mg/kg). PBS or NRH was injected at 24, 48 and 72 h after the initiation of the experiment. Kidneys of the mice were harvested, 4 h after the last injection, and NAD+ levels were analyzed in the kidney through mass spectrometry. All results are expressed as mean +/−SEM of n=5 mice per group. * indicates statistical difference at p<0.05 vs. vs. respective saline-treated mice
FIG. 7. […] Simultaneously, mice were intraperitoneally injected or not with PBS (as vehicle) or NRH (250 mg/kg) at 24, 48 and 72 h after the initiation of the experiment. Mice were sacrificed 4 h after the last injection, and plasma was collected to measure blood urea nitrogen levels. All results are expressed as mean +/−SEM of n=5 mice per group. * indicates statistical difference at p<0.05 vs. vs. respective saline-treated mice
Simultaneously, mice were intraperitoneally injected or not with PBS (as vehicle) or NRH (250 mg/kg). Urine was collected 24 h later to evaluate urea levels by NMR. All results are expressed as mean +/−SEM of n=5 mice per group. * indicates statistical difference at p<0.05 vs. vs. respective saline-treated mice.
Simultaneously, mice were intraperitoneally injected or not with PBS (as vehicle) or NRH (250 mg/kg). PBS or NRH were then injected at 24, 48 and 72 h after the initiation of the experiment. Mice were sacrificed 4 h after the last injection, and kidneys were fixed in OCT and used for immunohistochemistry against cleaved caspase 3. The cleaved caspase 3 staining was then quantified against the total area, using 10 images per mouse, 5 mice per group. All results are expressed as mean +/−SEM. * indicates statistical difference at p<0.05 vs. vs. respective saline-treated mice.
Simultaneously, mice were intraperitoneally injected or not with PBS (as vehicle) or NRH (250 mg/kg). PBS or NRH were then injected at 24, 48 and 72 h after the initiation of the experiment. 4 h after the last injection, and kidneys were obtained to isolate mRNA and analyze by qPCR makers of renal dysfunction (TGF-b1), glomerular dysfunction (fibronectin), apoptosis (BAX) and ER stress (BIP). All values are expressed as mean +/−SEM of n=4 mice per group. * indicates statistical difference at p<0.05 vs. respective vehicle-injected mice. # indicates statistical difference at p<0.05 vs. the respective mice in the control group.
Kidneys were harvested 4 hrs after the last NRH injection.

[8] = Stability in FBS supplemented media; format: in vitro ADME
From the text: NR degradation to NAM has been proposed as a limitation for its pharmacological efficacy. To evaluate whether NRH was also susceptible to degradation to NAM, we spiked NRH or NR in isolated mouse plasma. […] We also tested the stability of NRH in other matrixes.

[9] = cisplatin 20 mg/kg, NRH 250 mg/kg
[10] = kidney qPCR, cisplatin plus NRH

SMILES: NC(=O)C1=CN([C@@H]2O[C@H](CO)[C@@H](O)[C@H]2O)C=CC1 [NRH, dihydro-1-beta-D-ribofuranosyl-3-pyridinecarboxamide]
- NAD+ levels [1]: highly elevated NAD+ levels
- intracellular detection of NRH and NMNH ([2]; 5 minutes after treatment): could be detected intracellularly
- intracellular NR and NMN ([2]; after treatment, compared with NR): increase in intracellular NR and NMN, greater than that triggered by NR itself
- NR in circulation after NRH treatment [3]: detectable in circulation after NRH treatment at much higher levels than those detected after NR injection itself
- NRH in circulation [3]: detectable in circulation
- NAM levels in circulation ([3]; 500 mg/kg): only a very mild increase
- NRH concentration in plasma [4]: 11.16 ± 1.74 µM
- administered compound in plasma [4]: detectable in plasma
- ability to increase intracellular NAD+ compared with NR ([5]; AML12 hepatocytes): superior to that of NR
- time to significant increases in NAD+ levels after treatment ([5]; AML12 hepatocytes): ≤ 5 min
- increase in intracellular NAD+ levels at maximal effect ([5]; NRH around the millimolar range): more than 10 fold
- fold higher NR concentration needed for similar increases in intracellular NAD+ levels ([5]; NRH at 10 μM vs NR): 50 fold
- concentration of maximal effects on NAD+ synthesis ([5]; dose-response): around the millimolar range
- concentration at which NAD+ levels are significantly increased ([5]; dose-response, AML12 hepatocytes): 10 µM
- NAD+ levels in kidney [6]: increased NAD+ levels
- NAD+ levels in liver [6]: increased NAD+ levels
- NAD+ levels in muscle [6]: increased NAD+ levels
- NAD+ levels in kidney above control ([7]; 4 h after NRH supplementation): did not observe higher NAD^+ levels
- renal NADH levels ([7]; cisplatin 20 mg/kg IP, NRH 250 mg/kg IP at 0, 24, 48, 72 h, kidneys 4 h after last injection): prevented the drop in renal NAD^+ and NADH levels
- Me2PY and Me4PY levels in urine [7, 9]: further increased
- methyl-NAM levels in kidney [7, 9]: further increased methyl-NAM levels in kidney
- PARP activity ([7]; cisplatin mice treated with NRH): higher
- kidney structure (tubular necrosis, glomeruli dilatation, inflammation, cast formation) ([7]; histology, cisplatin 20 mg/kg, NRH 250 mg/kg): largely prevented
- presence of kidney casts ([7]; histology, cisplatin plus NRH): major decrease in the presence of kidney casts
- renal cell apoptosis (cleaved caspase 3 staining) ([7]; kidney immunohistochemistry, cisplatin plus NRH (FIG. 9)): protects against cisplatin-induced renal cell apoptosis
- BAX mRNA (marker of apoptosis) [7, 10]: prevented cisplatin-induced increases
- BIP mRNA (marker of ER stress) [7, 10]: prevented cisplatin-induced increases
- TGF-β1 expression [7, 10]: prevent the increase in TGF-β1 expression
- fibronectin mRNA (marker of glomerular dysfunction) [7, 10]: prevented cisplatin-induced increases
- degradation to NAM in FBS supplemented media [8]: did not degrade to NAM
